Entries after “also recorded” stand apart in the source; their conditions may differ. Like-named read-outs stand apart in the source and are kept apart here.
Experiments:
[1] = system: HCT-116 (human colon cancer cell line); test: MTT assay, cytotoxicity against HCT-116; assay type: cell-based; details: read-out: IC50 HCT-116
Description: (§1) All the synthesized derivatives of HO were tested for their antiproliferative activity against four human cancer cell lines, including the HCT-116, A375, A-549, and Huh-7 cell lines, using the MTT assay. Cisplatin was used as a positive control, while lead compound HO (1) was also included in the study for comparison.
(§2) HCT-116 (Human colon cancer cell line), A375 (human melanoma cancer cell line), A-549 (human lung adenocarcinoma cell line), Huh-7 (human hepatoma cancer cell line), and L-02 (normal hepatic cell line) were purchased from the Cell Bank of Shanghai Institute of Biochemistry and Cell Biology, Chinese Academy of Sciences (Shanghai, China). The cells were cultured in Dulbecco’s modified Eagle medium (DMEM; NY, USA), which were all supplemented with 10% fetal bovine serum (FBS; NY, USA) at 37 °C with 5% CO2.
(§3) The cytotoxic activity was evaluated using the MTT assay. Briefly, cells were seeded in 96-well plates at a density of 5 × 10^3 cells/well in 100 μL of DMEM medium at 37 °C for 24 h. Stock solutions of test compounds were prepared in DMSO at concentration of 50 mM, and twofold serial dilution with a culture medium was performed to obtain appropriate concentrations right before the assay. After that, the cells were incubated with synthetic derivatives or cisplatin as a positive control at the various concentrations (0.78125-50 μM) for 48 h. Then, 20 μL of 3-(4,5-Dimethylthiazol-2-yl)-2,5-diphenyltetrazolium bromide (MTT, Aladdin, Shanghai, China) solution (5 mg/mL in PBS) was added, and then the cells were incubated at 37 °C for an additional 4 h. The supernatant was removed, and 150 μL of dimethyl sulfoxide was added to dissolve the MTT formazan. The optical density (OD) was measured on a microplate reader (SpectraMax Plus 384, Molecular Devices, Sunnyvale, CA, USA) at a wavelength of 570 nm. The cytotoxic activity was expressed as the IC50 values. The above tests were repeated three times in parallel. Vehicle DMSO (0.1%) was used as a negative control.

[2] = system: A375 (human melanoma cancer cell line); test: MTT assay, cytotoxicity against A375; assay type: cell-based; details: read-out: IC50 A375
Description: as §1, §2, §3

[3] = system: A-549 (human lung adenocarcinoma cell line); test: MTT assay, cytotoxicity against A549; assay type: cell-based; details: read-out: IC50 A549
Description: as §1, §2, §3

[4] = system: Huh-7 (human hepatoma cancer cell line); test: MTT assay, cytotoxicity against Huh-7; assay type: cell-based; details: read-out: IC50 Huh-7
Description: as §1, §2, §3

[5] = system: HCT-116, A375, A549, and Huh-7 cells; test: MTT assay, statements for the whole panel of tested cancer cells; assay type: cell-based, human; details: for cytotoxic activities against four tested cancer cells (result in words): HCT-116, A375, A549, Huh-7, tested up to 50 μM; for cytotoxic activities against three other cancer cell lines (result in words): cell lines other than A549; for IC50: Homo sapiens, all tested cancer cells (HCT-116, A375, A549, Huh-7), read-out: IC50 against tested cells
Description: as §1, §2, §3

[6] = Homo sapiens, HCT-116, 48 h, MTT, 48 h, HCT-116 cells
[7] = Homo sapiens, A-375, 48 h, MTT, 48 h, A375 cells
[8] = Homo sapiens, A549, 48 h, MTT, 48 h, A549 cells
[9] = Homo sapiens, Huh-7, 48 h, MTT, 48 h, Huh-7 cells

Structure (SMILES)	IC50 [1, 6]	IC50 [2, 7]	IC50 [3, 8]	IC50 [4, 9]	cytotoxic activities against four tested cancer cells (result in words) [5]	also measured
N.N.[Cl][Pt][Cl] [Cisplatin, reference compound]	–	–	–	–	–	IC50 ([1]; MTT, 48 h, HCT-116 cells): 4.48 ± 0.18 µM; IC50 ([2]; MTT, 48 h, A375 cells): 4.04 ± 0.23 µM; IC50 ([3]; MTT, 48 h, A549 cells): 8.53 ± 0.98 µM; IC50 ([4]; MTT, 48 h, Huh-7 cells): 15.04 ± 0.15 µM
Cc1cc(=O)c(N)c2c3c1C1OC4C5OC(=O)C(CC2)(C4C)C3C15 [Compound 2, (3R,4aR,10aS,11S)-8-amino-5,11-dimethyl-2a,3,4a,9,10,10a1-hexahydro-1H-2,4-dioxa-3,10a-methanocyclohepta[bc]cyclopenta[jk]acenaphthylene-1,7(2a1H)-dione]	> 50 µM	> 50 µM	> 50 µM	> 50 µM	losing of cytotoxic activities	–
CC(=O)Nc1c2c3c(c(C)cc1=O)C1OC4C5OC(=O)C(CC2)(C4C)C3C15 [Compound 3, N-((3R,4aR,10aS,11S)-5,11-dimethyl-1,7-dioxo-2a,2a1,3,4a,7,9,10,10a1-octahydro-1H-2,4-dioxa-3,10a-methanocyclohepta[bc]cyclopenta[jk]acenaphthylen-8-yl) acetamide]	> 50 µM	> 50 µM	> 50 µM	> 50 µM	losing of cytotoxic activities	–
Cc1cc(=O)cc2c3c1C1OC4C5OC(O)C(CC2)(C4C)C3C15 [Compound 4, (1R,3R,4aR,10aS,11S)-1-hydroxy-5,11-dimethyl-2a,3,4a,9,10,10a1-hexahydro-1H-2,4-dioxa-3,10a-methanocyclohepta[bc]cyclopenta[jk]acenaphthylen-7(2a1H)-one]	> 50 µM	> 50 µM	> 50 µM	> 50 µM	losing of cytotoxic activities	–
CC(=O)OC1OC2C3OC4c5c(C)cc(=O)cc6c5C(C42)C1(CC6)C3C [Compound 5, (1S,3R,4aR,10aS,11S)-5,11-dimethyl-7-oxo-2a,2a1,3,4a,7,9,10,10a1-octahydro-1H-2,4-dioxa-3,10a-methanocyclohepta[bc]cyclopenta[jk]acenaphthylen-1-yl acetate]	> 50 µM	> 50 µM	> 50 µM	> 50 µM	losing of cytotoxic activities	–
Cc1ccc2c3c1C1OC4C5OC(=O)C(CC2=O)(C4C)C3C15 [Compound 7, (3R,4aR,9aS,10S)-5,10-dimethyl-2a,2a1,4a,9a1-tetrahydro-1H,3H-2,4-dioxa-3,9a-methanopentaleno [4,3,2,1-cdef]phenanthrene-1,8(9H)-dione]	> 50 µM	> 50 µM	> 50 µM	> 50 µM	inactive; also recorded: losing of cytotoxic activities	–
Cc1cc(=O)cc2c3c1C1OC4C5OC(=O)C(CC2Br)(C4C)C3C15 [Compound 8, (3R,4aR,9R,10aS,11S)-9-bromo-5,11-dimethyl-2a,3,4a,9,10,10a1-hexahydro-1H-2,4-dioxa-3,10a-methanocyclohepta[bc]cyclopenta[jk]acenaphthylene-1,7(2a1H)-dione]	2.19 ± 0.23 µM	3.4 ± 0.22 µM	43.4 ± 1.08 µM	30.8 ± 0.6 µM	–	–
COc1c2c3c(c(C)cc1=O)C1OC4C5OC(=O)C(CC2)(C4C)C3C15 [Compound 9, (3R,4aR,10aS,11S)-8-methoxy-5,11-dimethyl-2a,3,4a,9,10,10a1-hexahydro-1H-2,4-dioxa-3,10a-methanocyclohepta[bc]cyclopenta[jk]acenaphthylene-1,7(2a1H)-dione]	–	–	–	–	inactive; also recorded: losing of cytotoxic activities	IC50 ([1]; Homo sapiens, HCT-116, 48 h): > 50 µM; IC50 ([2]; Homo sapiens, A-375, 48 h): > 50 µM; IC50 ([3]; Homo sapiens, A549, 48 h): > 50 µM; IC50 ([4]; Homo sapiens, Huh-7, 48 h): > 50 µM
CC(=O)OC1CC23C(=O)OC4C(OC5c6c(C)cc(=O)cc1c6C2C54)C3C [Compound 11a, (3R,4aR,9S,10aS,11S)-5,11-dimethyl-1,7-dioxo-2a,2a1,3,4a,7,9,10,10a1-octahydro-1H-2,4-dioxa-3,10a-methanocyclohepta[bc]cyclopenta[jk]acenaphthylen-9-yl acetate]	5.95 ± 0.45 µM	30.1 ± 1.58 µM	27.5 ± 0.89 µM	> 50 µM	–	cytotoxic activities against three other cancer cell lines (result in words) [5]: weak cytotoxic activities
Cc1cc(=O)cc2c3c1C1OC4C5OC(=O)C(CC2OC(=O)CCC(=O)O)(C4C)C3C15 [Compound 11b, 4-(((3R,4aR,9S,10aS,11S)-5,11-dimethyl-1,7-dioxo-2a,2a1,3,4a,7,9,10,10a1-octahydro-1H-2,4-dioxa-3,10a-methanocyclohepta[bc]cyclopenta[jk]acenaphthylen-9-yl)oxy)-4-oxobutanoic acid]	> 50 µM	> 50 µM	> 50 µM	> 50 µM	–	IC50 [5]: > 50 µM
Cc1cc(=O)cc2c3c1C1OC4C5OC(=O)C(CC2OC(=O)c2ccco2)(C4C)C3C15 (centres unmarked) [Compound 11c]	11 ± 0.34 µM	16.4 ± 1.92 µM	23.2 ± 0.67 µM	> 50 µM	–	cytotoxic activities against three other cancer cell lines (result in words) [5]: weak cytotoxic activities
Cc1cc(=O)cc2c3c1C1OC4C5OC(=O)C(CC2OC(=O)c2ccccc2)(C4C)C3C15 [Compound 11d, (3R,4aR,9S,10aS,11S)-5,11-dimethyl-1,7-dioxo-2a,2a1,3,4a,7,9,10,10a1-octahydro-1H-2,4-dioxa-3,10a-methanocyclohepta[bc]cyclopenta[jk]acenaphthylen-9-yl benzoate]	> 50 µM	> 50 µM	> 50 µM	> 50 µM	–	IC50 [5]: > 50 µM
Cc1cc(=O)cc2c3c1C1OC4C5OC(=O)C(CC2OC(=O)c2ccccn2)(C4C)C3C15 [Compound 11e, (3R,4aR,9S,10aS,11S)-5,11-dimethyl-1,7-dioxo-2a,2a1,3,4a,7,9,10,10a1-octahydro-1H-2,4-dioxa-3,10a-methanocyclohepta[bc]cyclopenta[jk]acenaphthylen-9-yl picolinate]	5.47 ± 0.27 µM	7.08 ± 0.42 µM	18 ± 4.18 µM	> 50 µM	–	cytotoxic activities against three other cancer cell lines (result in words) [5]: weak cytotoxic activities
Cc1cc(=O)cc2c3c1C1OC4C5OC(=O)C(CC2OC(=O)c2nc(C)c(C)nc2C)(C4C)C3C15 [Compound 11f, (3R,4aR,9S,10aS,11S)-5,11-dimethyl-1,7-dioxo-2a,2a1,3,4a,7,9,10,10a1-octahydro-1H-2,4-dioxa-3,10a-methanocyclohepta[bc]cyclopenta[jk]acenaphthylen-9-yl 3,5,6-trimethylpyrazine-2-carboxylate]	10.8 ± 0.42 µM	18.6 ± 2.23 µM	25.9 ± 0.68 µM	> 50 µM	–	cytotoxic activities against three other cancer cell lines (result in words) [5]: weak cytotoxic activities
Cc1cc(=O)cc2c3c1C1OC4C5OC(=O)C(CC2O)(C4C)C3C15 [Compound 12, (3R,4aR,9R,10aS,11S)-9-hydroxy-5,11-dimethyl-2a,3,4a,9,10,10a1-hexahydro-1H-2,4-dioxa-3,10a-methanocyclohepta[bc]cyclopenta[jk]acenaphthylene-1,7(2a1H)-dione]	–	–	–	–	–	IC50 ([1]; MTT, 48 h, HCT-116 cells): 31.9 ± 0.69 µM; IC50 ([2]; MTT, 48 h, A375 cells): 40.4 ± 7.58 µM; IC50 ([3]; MTT, 48 h, A549 cells): 34.7 ± 1.94 µM; IC50 ([4]; MTT, 48 h, Huh-7 cells): > 50 µM
Cc1cc(=O)cc2c3c1C1OC4C5OC(=O)C(CC2=O)(C4C)C3C15 [Compound 13, (3R,4aR,10aS,11S)-5,11-dimethyl-2a,3,4a,10a1-tetrahydro-1H-2,4-dioxa-3,10a-methanocyclohepta[bc]cyclopenta[jk]acenaphthylene-1,7,9(2a1H,10H)-trione]	> 50 µM	> 50 µM	> 50 µM	> 50 µM	–	IC50 [5]: > 50 µM
